# PubChem BioAssay AID463203 (Broad Institute, 2010)
# Active and inactive are the calls of the source.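 How the source made its calls: active means more than half of replicate measurements showing over 20% loss of kinase signal relative to plate controls; inconclusive means some but at most half of replicates over 20% loss; inactive means no replicate over 20% signal loss.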
# Target: Glycogen synthase kinase-3 alpha (Homo sapiens) (UniProt P49840)
# Assay: concentration-response blocking of human GSK3A – biochemical, luminescence, cell-free homogeneous, retest, dose response (AID 463203)
# Details: GSK-3 alpha enzyme, ADP-Glo luminescence, 60 min
# Chain of Glycogen synthase kinase-3 alpha (Homo sapiens) (P49840 whole entry, looked up): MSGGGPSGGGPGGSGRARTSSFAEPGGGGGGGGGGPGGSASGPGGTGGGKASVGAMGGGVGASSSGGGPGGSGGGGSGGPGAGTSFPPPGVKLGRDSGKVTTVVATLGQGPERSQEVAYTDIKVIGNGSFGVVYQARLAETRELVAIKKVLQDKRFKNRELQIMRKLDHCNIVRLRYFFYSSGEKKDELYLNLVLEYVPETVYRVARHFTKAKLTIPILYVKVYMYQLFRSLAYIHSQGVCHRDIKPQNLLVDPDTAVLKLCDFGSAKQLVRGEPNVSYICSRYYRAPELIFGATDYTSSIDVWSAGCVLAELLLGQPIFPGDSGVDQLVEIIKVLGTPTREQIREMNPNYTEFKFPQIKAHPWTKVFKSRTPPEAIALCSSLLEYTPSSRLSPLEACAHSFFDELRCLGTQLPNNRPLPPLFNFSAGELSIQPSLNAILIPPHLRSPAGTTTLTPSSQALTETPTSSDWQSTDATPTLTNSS
row,SMILES,AC50
1,O=[N+]([O-])c1cccnc1NCCc1ccccc1,> 30 µM (inactive)
2,O=Cc1c(NCCc2cccc(F)c2)c2ccccc2[nH]c1=O,15.2 µM
3,CCn1c(SCc2nc3sc(C(=O)O)c(C)c3c(=O)[nH]2)nc2ccccc21,10.8 µM
4,Cc1c(C(=O)N2CCOCC2)oc2ccc(S(=O)(=O)N3CCCCCC3)cc12,> 30 µM (inactive)
5,COc1ccc(NC(=O)Nc2ccc(F)cc2)c(C)c1,> 30 µM (inactive)
6,NC(=O)NCC12CC3CC(CC(C3)C1)C2,> 30 µM (inactive)
7,Clc1cccc(/C=N/Nc2ncnc3ccccc23)c1,> 30 µM (inactive)
8,CC(=O)c1cc(-c2ccc(F)cc2)n(CCC(=O)Nc2cc(C)[nH]n2)c1C,11.9 µM
9,O=C(Nc1cccc(Cl)c1N1CCOCC1)c1ccc(Br)o1,> 30 µM (inactive)
10,COc1cccc(-c2c(C(=O)N/N=C(\C)c3cccs3)nnn2-c2nonc2N)c1,1.61 µM
11,CC1(C)Cc2cccc(C(=O)Nc3ccc(Cl)cc3)c2O1,> 30 µM (inactive)
12,CC(=O)c1sc(Nc2cccc(C)c2)nc1C,> 30 µM (inactive)
13,CC1(C)Cc2cccc(C(=O)NCc3ccco3)c2O1,> 30 µM (inactive)
14,CCSc1ncnc2c1sc1nc3c(cc12)COC(C)(C)C3,> 30 µM (inactive)
15,O=C(O)c1ccc(Nc2nc(-c3ccccc3)nc3ccccc23)cc1,> 30 µM (inactive)
16,N#C/C(=C/Nc1ccccc1)c1ccsc1,> 30 µM (inactive)
17,Cn1cc(C(=O)c2cccc(Cl)c2)cc1/C=N\O,28.3 µM
18,CCOC(=O)/C(C#N)=C1/SC(CCO)C(=O)N1c1ccccc1 (stereo unspecified),13.1 µM
19,NNC(=O)CCCCCCCCCCOCCCCO,> 30 µM (inactive)
20,Cc1ccc(NC(=O)c2cc(-n3cnnc3)ccc2Cl)cc1,> 30 µM (inactive)
21,Clc1ccc(-c2nnc(SCc3nc(-c4ccccc4)no3)o2)cc1,> 30 µM (inactive)
22,Nc1ncnc2c1ncn2[C@H]1C[C@H](O)[C@@H](CO)O1,> 30 µM (inactive)

row,SMILES,AC50
1,O=C(NC1(C(F)(F)F)NC(=O)N(Cc2cccnc2)C1=O)c1ccccc1 (stereo unspecified),> 30 µM (inactive)
2,CCOC(=O)c1nc2sc3c(c2c(=O)[nH]1)CCC(C)C3 (stereo unspecified),> 30 µM (inactive)
3,COc1cc(C2CC(=O)Nc3n[nH]c(-c4ccccc4)c32)cc(OC)c1OC (stereo unspecified),> 30 µM (inactive)
4,CC(=O)Nc1ccc(Oc2ccc3c(c2)C(=O)NC3=O)cc1,25 µM
5,O=C(NC1CCCC1)c1cccc(NC(=O)c2ccco2)c1,> 30 µM (inactive)
6,Cc1cccc(C)c1OC(=O)C(c1ccccc1)c1ccccc1,> 30 µM (inactive)
7,CC(=O)c1sc(NC(=O)CN2C(=O)C3CCCCC3C2=O)nc1-c1ccccc1 (stereo unspecified),8.54 µM
8,c1ccc2c(c1)ccc1nnc(-c3ccc4c(c3)OCO4)n12,> 30 µM (inactive)
9,CCOC(=O)c1[nH]c2c(c1-c1ccccc1)C(=O)CC(c1ccc(OCC)cc1)C2 (stereo unspecified),> 30 µM (inactive)
10,COc1ccccc1Nc1nc(NCCCCO)nc(N2CCCC2)n1,> 30 µM (inactive)
11,C/C(CC(=O)N(C(C)C)C(C)C)=N\NC(=O)COc1ccc(Cl)cc1Cl,> 30 µM (inactive)
12,CCN1C(=O)/C(=C\c2cccs2)C(C(=O)OC)=C1C,> 30 µM (inactive)
13,O=C(c1ccc2c3n(nc2c1)-c1ccc(Cl)cc1CO3)N1CCOCC1,> 30 µM (inactive)
14,COC(=O)C1=C(C)Nc2[nH]c(=S)[nH]c(=O)c2C1c1ccc(O)cc1 (stereo unspecified),> 30 µM (inactive)
15,COc1ccc2ccccc2c1/C=N/NC(=O)c1sc(N)c(C#N)c1C,25.3 µM
16,COc1ccc(NC(=O)Nc2ccc(F)cc2F)c(C)c1,> 30 µM (inactive)
17,O=C(NCCN1CCc2ccccc2C1)Nc1ccc(F)cc1,> 30 µM (inactive)
18,CCOc1ccc(-n2c(SCC(=O)Nc3ccccc3C)n[nH]c2=O)cc1,> 30 µM (inactive)
19,COc1ccccc1C(CNc1ccc(S(=O)(=O)N2CCCC2)cc1[N+](=O)[O-])N(C)C (stereo unspecified),> 30 µM (inactive)
20,COc1ccc(COC(=O)C2=C(C)NC(=O)NC2c2ccccc2F)cc1 (stereo unspecified),> 30 µM (inactive)
21,O=C(CSc1cccc2cccnc12)N/N=C/c1ccc(O)cc1,> 30 µM (inactive)
22,O=C(Nc1ccccc1)c1cc(-n2cnnc2)ccc1Cl,> 30 µM (inactive)

row,SMILES,AC50
1,CN(C)c1ccc(CN2CCCCC2)cc1,> 30 µM (inactive)
2,COc1ccc(C2C3(C#N)C(N)=NC(OC)(OC)C23C#N)cc1 (stereo unspecified),> 30 µM (inactive)
3,COc1ccc(Cl)cc1Nc1nc(N)c2ccccc2n1,> 30 µM (inactive)
4,CCc1ccc(NC(=O)N[C@H](C(=O)O)C(C)CC)cc1 (stereo partly specified),> 30 µM (inactive)
5,CC(C)C(=O)NC(=S)/C=C1/N(C)c2ccccc2C1(C)C,> 30 µM (inactive)
6,CCN(CC)S(=O)(=O)c1ccc2oc(C(=O)N3CCOCC3)c(C)c2c1,> 30 µM (inactive)
7,O=C1c2cccc(O)c2C(=O)c2c(O)cc(CO)cc21,> 30 µM (inactive)
8,Cc1ccc(C(=O)N2NC(c3ccc(F)cc3)C3C(=O)N(c4ccc(C)c(C)c4)C(=O)C32)cc1 (stereo unspecified),> 30 µM (inactive)
9,Cc1sc2nc(SCC(=O)Nc3ccc(S(=O)(=O)NCCCC(=O)O)cc3)[nH]c(=O)c2c1C,7.13 µM
10,CCCC1=C(C(=O)OCC)C(c2ccc(O)cc2)n2ncnc2N1 (stereo unspecified),11.2 µM
11,COc1c2ccccc2nc2ccccc12,> 30 µM (inactive)
12,CCOC(=O)C1=C(C)NC(C)=C(C(=O)OCC)C1c1sccc1C,> 30 µM (inactive)
13,Cc1ccccc1N=Nc1c(O)[nH]c2ccccc12,> 30 µM (inactive)
14,O=C1c2cnc3nc(SCc4ccccc4)nn3c2CC2c3ccccc3CCN12 (stereo unspecified),> 30 µM (inactive)
15,CCCCOC(=O)n1ccc(C(=O)Nc2ccccc2OC)n1,29.6 µM
16,C[C@H](CO)N1C[C@H](C)[C@@H](CN(C)S(=O)(=O)c2ccc(F)cc2)Oc2c(NC(=O)Cc3ccccc3)cccc2C1=O,> 30 µM (inactive)
17,CCOC(=O)N1CCC(N2CCN(S(=O)(=O)c3ccc4ccccc4c3)CC2)CC1,> 30 µM (inactive)
18,Brc1ccccc1C1=Nn2c(nnc2-c2ccco2)SC1,17.5 µM
19,O=C1CCCN1CCCNc1ncccc1[N+](=O)[O-],> 30 µM (inactive)
20,CSc1ccc(-c2cc(=O)c3ccccc3o2)cc1,> 30 µM (inactive)
21,Cc1ccc(CSc2ccc3nnc(-c4cccnc4)n3n2)cc1,> 30 µM (inactive)
22,CCN1C(=O)C(=C/C=C/c2ccco2)C(=O)N(CC)C1=S,> 30 µM (inactive)

row,SMILES,AC50
1,Cn1cc([N+](=O)[O-])c(C(=O)Nc2cnn(Cc3ccc(F)cc3)c2)n1,> 30 µM (inactive)
2,COC(=O)c1cc2cc(Cl)ccc2nc1SC,> 30 µM (inactive)
3,O=C(CSCCO)Nc1ccc([N+](=O)[O-])cc1,> 30 µM (inactive)
4,O=C(N/N=C/c1ccc(Cl)c(Cl)c1)c1ccc2nc[nH]c2c1,> 30 µM (inactive)
5,Cc1ccc(-c2nnc(N3CCN(C(=O)COc4ccccc4)CC3)c3ccccc23)cc1,> 30 µM (inactive)
6,O=C(Nc1ccccc1N1CCOCC1)c1ccc(S(=O)(=O)NCc2ccco2)cc1,> 30 µM (inactive)
7,CC(C)(C)NCC(O)COc1ccccc1C(C)(C)C (stereo unspecified),> 30 µM (inactive)
8,Cc1occc1C(=O)N/N=C/c1ccc(N(C)C)cc1,23.1 µM
9,COC(=O)c1cc(OC)nc2ccc(Br)cc12,> 30 µM (inactive)
10,O=C(O)C1CC(O)CN1C(=S)Nc1ccccc1 (stereo unspecified),> 30 µM (inactive)
11,Cc1ccc2c(c1)Oc1ccc(NC(=O)CCCl)cc1C(=O)N2,> 30 µM (inactive)
12,S=C(NCCC1=CCCCC1)Nc1ccccc1,> 30 µM (inactive)
13,CCSc1ccccc1C(=O)Nc1cccnc1,> 30 µM (inactive)
14,Brc1ccc(-c2nnc3ccc(Nc4ccccc4)nn23)cc1,> 30 µM (inactive)
15,COc1ccccc1CC(=O)N1CCOCC1,> 30 µM (inactive)
16,CC(C)=CCc1c(O)cc(O)c2c(=O)c(O[C@@H]3O[C@@H](C)[C@H](O)[C@@H](O)[C@H]3O)c(-c3ccc(O)cc3)oc12,19.6 µM
17,CC1CC(=O)c2cnc(NCC3CCCO3)nc2C1 (stereo unspecified),> 30 µM (inactive)
18,Fc1cccc(/C=N/Nc2cc(N3CCOCC3)ncn2)c1,> 30 µM (inactive)
19,CCOC(=O)c1nnn(-c2nonc2N)c1-c1ccc(F)cc1,16.1 µM
20,Cc1noc(C)c1COc1cccc(C(=O)OC(C)C(=O)Nc2c(C)n(C)n(-c3ccccc3)c2=O)c1 (stereo unspecified),> 30 µM (inactive)
21,COc1cccc(-c2c(C(=O)N/N=C/c3ccoc3)nnn2-c2nonc2N)c1,7.92 µM
22,N#Cc1c(C#N)c(-c2ccccc2)n(-c2ccc(C(=O)O)cc2)c1N,14.2 µM

row,SMILES,AC50
1,O=c1[nH]nnc2c1sc1nc(N3CCOCC3)c3c(c12)CCCC3,13.4 µM
2,CCCCOc1ccc(CSc2nc(C)[nH]c2[N+](=O)[O-])cc1[N+](=O)[O-],> 30 µM (inactive)
3,Nc1c(S(=O)(=O)c2ccccc2)nnn1-c1ccccc1,> 30 µM (inactive)
4,C/C(=N\NC(=O)c1nnn(-c2nonc2N)c1-c1ccccc1)c1cccnc1,18.3 µM
5,Cc1cnc(NC(=O)C2CC(=O)N(c3ccc4c(c3)OCCO4)C2)s1 (stereo unspecified),> 30 µM (inactive)
6,CC1CN(c2nc(Nc3ccccc3F)nc(N)c2[N+](=O)[O-])CC(C)O1 (stereo unspecified),9.19 µM
7,CCCCOC(=O)C1=C(C)Nc2ncnn2C1c1cc(OC)ccc1OC (stereo unspecified),> 30 µM (inactive)
8,NC(=O)c1ccsc1NC(=O)C1CC1,> 30 µM (inactive)
9,N#Cc1c(Nc2ccccc2)c(C=NCCN2CCOCC2)c[nH]c1=O,> 30 µM (inactive)
10,CCn1ncc([N+](=O)[O-])c1C(=O)N1CCCC1,> 30 µM (inactive)
11,Nc1nonc1-n1nnc(C(=O)N/N=C/c2ccco2)c1CSc1ccccc1,> 30 µM (inactive)
12,N#C/C(=N\Nc1cccc(F)c1)C(=O)C1CC1,> 30 µM (inactive)
13,CCOC(=O)N1CCC(N2CCN(S(=O)(=O)c3ccc(Cl)cc3)CC2)CC1,> 30 µM (inactive)
14,CCOC(=O)c1c(NC(=O)C2CC2)sc(C)c1CC,> 30 µM (inactive)
15,COc1cccc(Nc2nc(N)c([N+](=O)[O-])c(NCc3ccco3)n2)c1,5.75 µM
16,CSc1ccc(/C=N/NC(=O)c2ccccc2Cl)cc1,> 30 µM (inactive)
17,COc1ccc(-c2cn3cccnc3n2)cc1NC(=O)CC(C)C,> 30 µM (inactive)
18,COc1ccc(-c2ncncc2-c2ccccc2)c(O)c1,13.2 µM
